Target: T1, human SCD1 (Homo sapiens, UniProt O00767)
T1 construct: made in house; host or cells: High Five insect cells (baculovirus, pFastBac1/hSCD1); membrane fraction
T1 sequence (O00767 1-359): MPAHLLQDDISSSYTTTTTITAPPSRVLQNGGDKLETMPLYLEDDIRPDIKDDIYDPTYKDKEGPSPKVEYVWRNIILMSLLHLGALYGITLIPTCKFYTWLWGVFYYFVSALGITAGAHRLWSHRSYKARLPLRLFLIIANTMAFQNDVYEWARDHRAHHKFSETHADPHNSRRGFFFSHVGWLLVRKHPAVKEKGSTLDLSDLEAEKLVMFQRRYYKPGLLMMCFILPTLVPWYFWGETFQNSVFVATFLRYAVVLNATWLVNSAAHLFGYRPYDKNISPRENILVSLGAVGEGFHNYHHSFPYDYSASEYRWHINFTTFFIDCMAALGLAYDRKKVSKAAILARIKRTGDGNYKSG
Experiment: Measurement of human SCD1 binding activity (inhibition of binding of radiolabeled compound Z)
Conditions: 0.1 μM compound; human SCD1-expressing membrane fraction; compound Z radioligand; read-out: Rate of inhibition of SCD1 binding at compound concentration of 0.1 μM
Procedure: Measurement of Human SCD1 Binding Activity Using (5-(6-(1′H-spiro[1-benzofuran-3,3′-pyrrolidin]-1′-yl)pyridazin-3-yl)-1,2,4-oxadiazol-3-yl) [^3H2]methanol
The SCD1 binding activity of the compound of the present invention was measured as the activity of inhibiting the binding of (5-(6-(1′H-spiro[1-benzofuran-3,3′-pyrrolidin]-1′-yl)pyridazin-3-yl)-1,2,4-oxadiazol-3-yl)[^3H2]methanol (radiolabeled form of the compound disclosed as a SCD inhibitor in Example 157 of International Publication No. WO2008/096746; in the present specification, also referred to as compound Z) to SCD1.
Specifically, first, Human liver cDNA library (Takara Bio Inc.) was cloned as a template by PCR using KOD-Plus-(Toyobo Co., Ltd.) DNA polymerase. The primers used were 5′-[…]-3′ and 5′-[…]-3′. The amplification fragment was temporarily transferred to a pCR Blunt II-TOPO vector using Zero Blunt PCR Cloning Kit (Life Technologies, Inc.) to obtain pCR Blunt II-TOPO/hSCD1. A fragment obtained by the cleavage of this pCR Blunt II-TOPO/hSCD1 with BamHI and NotI was transferred to pFastBac1 (Life Technologies, Inc.) to construct a recombinant plasmid pFastBac1/hSCD1 for hSCD1 insect cell expression systems.
Baculovirus was prepared using the pFastBac1/hSCD1 plasmid according to the protocol of Bac-to-Bac Baculovirus Expression System (Life Technologies, Inc.).
The insect cells for use in expression were High Five cells (Life Technologies, Inc.) subcultured in a PSFM-J1 medium (Wako Pure Chemical Industries, Ltd.) containing 5% FBS, 10 U/L heparin (Sigma-Aldrich Corp.) and 50 μg/mL gentamicin.
The High Five cells were inoculated at 0.8×10^6 cells/mL and cultured until the following day. When the cell density reached 2.0×10^6 cells/mL, Ammonium Iron(III) Sulfate 12-Water (Wako Pure Chemical Industries, Ltd.) was added thereto at a final concentration of 10 μM. The cells were further infected with the baculovirus and cultured for 3 days.
After the completion of the culture, the culture solution was centrifuged (4° C., 4,000 rpm, […]) and frozen at −80° C. to obtain hSCD1-expressing insect cells. Next, the frozen hSCD1-expressing insect cells were suspended in buffer A (50 mM Tris-HCl (pH 7.5) containing 250 mM sucrose and cOmplete Protease Inhibitor Cocktail Tablets (F. Hoffmann-La Roche, Ltd.)), and the cells were disrupted (4° C., 20,000 rpm, 20 sec×2) using a POLYTORON homogenizer (Central Scientific Commerce, Inc.).
This cell lysate was centrifuged (4° C., 850×g, […]), and the supernatant was further ultracentrifuged (4° C., 186,000×g, 60 min). The supernatant was discarded, and buffer A was added to the precipitate. The resultant was suspended using POLYTRON (4° C., 10,000 rpm, 10 sec×2) and passed through a 40-μm cell strainer to prepare a human SCD1-expressing membrane fraction (hereinafter, also simply referred to as human SCD1). The protein concentration was measured using BCA Protein Assay Kit (Thermo Fisher Scientific, Inc.) with BSA used as standards.
The obtained primary dilution was diluted 250-fold by the addition of an assay buffer (10 mM Tris-HCl, pH 7.5, 100 mM KCl, 10 mM NaF, 3 mM MgCl2, 0.005% Tween 20, 1 mM GSH) to obtain a secondary dilution. The human SCD1 diluted using an assay buffer was dispensed at 100 μL/well (containing 0.2 μg of the protein) to a polypropylene 96-well plate, and then, the secondary dilution of the compound was added thereto at 50 μL/well. Further, a solution of 12 nM compound Z diluted with an assay buffer was added thereto at 50 μL/well, and the plate was left standing at room temperature for 2 hours. Then, the contents in each well were transferred to each well of UniFilter-96 GF/C PEI coated plate (PerkinElmer, Inc.) wetted with a washing buffer, followed by washing five times with a washing buffer (10 mM Tris-HCl, pH 7.5). After drying of the filter plate, Microscint-O (PerkinElmer, Inc.) was added thereto at 25 μL/well, and the obtained radioactivity was measured using TopCount (PerkinElmer, Inc.). […]

**Q.** Which inhibition at 0.1 µM does the source give for `COC1(c2ccc(S(F)(F)(F)(F)F)cc2)CCN(c2ccc(-c3nnc(CO)s3)nn2)CC1` [Example 111, (5-(6-(4-Methoxy-4-(4-(pentafluorosulfanyl)phenyl)piperidin-1-yl)pyridazin-3-yl)-1,3,4-thiadiazol-2-yl)methanol] here?
**A.** 93%

Same assay, conditions: 1 μM compound; human SCD1-expressing membrane fraction; compound Z radioligand; read-out: Rate of inhibition of SCD1 binding (%) at compound concentration of 1 μM

**Q.** With `N#CC1(c2ccc(S(F)(F)(F)(F)F)cc2)CCN(c2ccc(-c3nc(CO)ns3)nn2)CC1` [Example 108, 1-(6-(3-(Hydroxymethyl)-1,2,4-thiadiazol-5-yl)pyridazin-3-yl)-4-(4-(pentafluorosulfanyl)phenyl)piperidine-4-carbonitrile] as the compound, how does the inhibition at 1 µM read?
**A.** 99%

**Q.** `COC1(c2ccc(S(F)(F)(F)(F)F)cc2)CCN(c2ccc(-c3nc(CO)ns3)nn2)CC1` [Example 110, (5-(6-(4-Methoxy-4-(4-(pentafluorosulfanyl)phenyl)piperidin-1-yl)pyridazin-3-yl)-1,2,4-thiadiazol-3-yl)methanol] was tested. Which inhibition at 1 µM did it give?
**A.** 100%

**Q.** Which inhibition at 1 µM does the source give for `OCc1noc(-c2ccc(N3CCC(c4ccc(C(F)(F)F)cc4)(C(F)(F)F)CC3)nn2)n1` [Example 82, (5-(6-(4-(Trifluoromethyl)-4-(4-(trifluoromethyl)phenyl)piperidin-1-yl)pyridazin-3-yl)-1,2,4-oxadiazol-3-yl)methanol] here?
**A.** 99%

**Q.** With `N#CC1(c2ccc(S(F)(F)(F)(F)F)cc2)CCN(c2ccc(-c3nnc(CO)o3)nn2)CC1` [Example 58, 1-(6-(5-(Hydroxymethyl)-1,3,4-oxadiazol-2-yl)pyridazin-3-yl)-4-(4-(pentafluorosulfanyl)phenyl)piperidine-4-carbonitrile] as the compound, how does the inhibition at 1 µM read?
**A.** 89%

**Q.** `N#CC1(c2ccc(S(F)(F)(F)(F)F)cc2)CCN(c2ccc(-c3nnc(CO)s3)nn2)CC1` [Example 109, 1-(6-(5-(Hydroxymethyl)-1,3,4-thiadiazol-2-yl)pyridazin-3-yl)-4-(4-(pentafluorosulfanyl)phenyl)piperidine-4-carbonitrile] was tested. Which inhibition at 1 µM did it give?
**A.** 87%

**Q.** Which inhibition at 1 µM does the source give for `OCc1nnc(-c2ccc(N3CCC(c4ccc(C(F)(F)F)cc4)(C(F)(F)F)CC3)nn2)s1` [Example 113, (5-(6-(4-(Trifluoromethyl)-4-(4-(trifluoromethyl)phenyl)piperidin-1-yl)pyridazin-3-yl)-1,3,4-thiadiazol-2-yl)methanol] here?
**A.** 100%

**Q.** `OCc1nsc(-c2ccc(N3CCC(c4ccc(C(F)(F)F)cc4)(C(F)(F)F)CC3)nn2)n1` [Example 112, (5-(6-(4-(Trifluoromethyl)-4-(4-(trifluoromethyl)phenyl)piperidin-1-yl)pyridazin-3-yl)-1,2,4-thiadiazol-3-yl)methanol] was tested. Which inhibition at 1 µM did it give?
**A.** 99%

**Q.** `OCc1nnc(-c2ccc(N3CCC(c4ccc(C(F)(F)F)cc4)(C(F)(F)F)CC3)nn2)o1` [Example 84, (5-(6-(4-(Trifluoromethyl)-4-(4-(trifluoromethyl)phenyl)piperidin-1-yl)pyridazin-3-yl)-1,3,4-oxadiazol-2-yl)methanol] was tested. Which inhibition at 1 µM did it give?
**A.** 99%

**Q.** Which inhibition at 1 µM does the source give for `COC1(c2ccc(S(F)(F)(F)(F)F)cc2)CCN(c2ccc(-c3nnc(CO)o3)nn2)CC1` [Example 93, (5-(6-(4-Methoxy-4-(4-(pentafluorosulfanyl)phenyl)piperidin-1-yl)pyridazin-3-yl)-1,3,4-oxadiazol-2-yl)methanol] here?
**A.** 98%

From US20170015654A1, “PYRIDAZINE COMPOUND” (TAKEDA PHARMACEUTICAL COMPANY LIMITED, priority 2014, published 2017)
